Laboratory results as given in US20200308192A1, “NOVEL THIAZOLO[5,4-D]PYRIMIDINE DERIVATIVES AS INVERSE AGONISTS OF A2A ADENOSINE RECEPTORS” (Universita degli Studi di Ferrara, priority 2016, published 2020).
Like-named read-outs stand apart in the source and are kept apart here.

How the values were obtained:
[1] = molecular target: T1, human adenosine A3 receptor (Homo sapiens, UniProt P0DMS8); test: Competition binding, [125I]-ABMECA, hA3 CHO membranes; settings: mean ± SEM
T1 construct: expressed in transfected cells; host or cells: CHO cells (membrane preparation)
T1 sequence (P0DMS8 1-318): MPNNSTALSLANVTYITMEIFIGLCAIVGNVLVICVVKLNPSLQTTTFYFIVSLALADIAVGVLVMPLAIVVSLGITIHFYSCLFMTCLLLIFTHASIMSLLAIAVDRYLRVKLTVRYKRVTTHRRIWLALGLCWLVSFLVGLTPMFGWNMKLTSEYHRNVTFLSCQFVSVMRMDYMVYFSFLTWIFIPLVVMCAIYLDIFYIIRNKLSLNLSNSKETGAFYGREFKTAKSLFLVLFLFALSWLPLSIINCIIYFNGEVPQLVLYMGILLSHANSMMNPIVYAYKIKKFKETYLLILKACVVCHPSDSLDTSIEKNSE

[2] = molecular target: T2, human adenosine A1 receptor (Homo sapiens, UniProt P30542); test: Competition binding, [3H]-DPCPX, hA1 CHO membranes; settings: read-out: Receptor hA1 Ki, mean ± SEM
T2 sequence (P30542 1-326): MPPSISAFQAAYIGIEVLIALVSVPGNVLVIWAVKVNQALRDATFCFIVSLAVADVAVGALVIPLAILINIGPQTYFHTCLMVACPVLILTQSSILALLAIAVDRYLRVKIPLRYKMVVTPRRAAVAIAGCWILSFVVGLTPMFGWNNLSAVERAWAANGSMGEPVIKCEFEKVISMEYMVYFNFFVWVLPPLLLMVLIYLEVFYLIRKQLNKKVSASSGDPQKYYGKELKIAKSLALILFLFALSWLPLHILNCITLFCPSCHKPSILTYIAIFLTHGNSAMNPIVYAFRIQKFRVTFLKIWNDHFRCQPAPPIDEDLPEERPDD

[3] = molecular target: T3, human adenosine A2A receptor (Homo sapiens, UniProt P29274); test: Competition binding, [3H]-ZM 241385, hA2A CHO membranes
T3 sequence (P29274 whole entry): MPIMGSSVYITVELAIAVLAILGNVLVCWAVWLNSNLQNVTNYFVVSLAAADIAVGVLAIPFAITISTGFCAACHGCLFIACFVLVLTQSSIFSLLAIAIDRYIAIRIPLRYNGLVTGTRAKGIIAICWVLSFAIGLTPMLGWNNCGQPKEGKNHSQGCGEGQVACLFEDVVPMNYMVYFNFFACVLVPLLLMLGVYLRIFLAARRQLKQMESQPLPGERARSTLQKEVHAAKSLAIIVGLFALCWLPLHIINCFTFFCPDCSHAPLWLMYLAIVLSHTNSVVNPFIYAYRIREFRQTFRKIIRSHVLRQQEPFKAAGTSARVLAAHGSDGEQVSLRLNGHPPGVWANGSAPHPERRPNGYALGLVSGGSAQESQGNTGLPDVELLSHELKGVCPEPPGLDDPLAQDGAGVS

[4] = molecular target: T3, human adenosine A2A receptor; test: cAMP assay in hA2A CHO cells, basal or with CGS 21680; type: cell-based; set-up: expressed in transfected cells; host or cells: CHO cells; settings: for IC50: mean ± SEM
Experimental: For the membranes preparation the culture medium was removed, and the cells were washed with a saline phosphate-buffered solution collected with hypotonic buffer (5 mM Tris HCl, 1 mM EDTA, pH 7.4).
CHO cells transfected with the adenosine receptors were washed with a phosphate-buffered saline solution, detached with trypsin and centrifuged for 10 minutes at 200 g. […] The reaction was terminated by addition of cold 6% trichloroacetic acid (TCA). The TCA suspension was centrifuged at 2000 g for 10 minutes at 4° C. and the supernatant was extracted four times with diethyl ether with water. The final aqueous solution was tested for the cAMP levels by a competition protein binding assay with a cAMP-binding protein. The standard samples of cAMP (0-10 pmoli) were added to each test tube containing the incubation buffer (trizma base 0.1 M, aminophylline 8.0 mM, 2 mercaptoethanol 6.0 mM, pH 7.4) and [^3H]-cAMP. The binding protein previously prepared from beef adrenals, was added to the samples previously incubated at 4° C. for 150 minutes, and after the addition of charcoal were centrifuged at 2000 g for 10 min.
(§1) The statistical analysis of the data was performed using ANOVA followed by Dunnett's test. […] KH and KL were obtained by using a two sites binding model and Graph PAD Prism (San Diego, Calif., USA). The values of IC50 obtained in the cAMP assays were calculated by non-linear regression analysis using the equation for a sigmoid concentration-response curve. All data are expressed as the mean±SEM of four independent experiments each performed in duplicate for in vitro assays and n=8-10 mice/group for in vivo assays.

[5] = molecular target: T4, human adenosine A2B receptor (Homo sapiens, UniProt P29275); test: cAMP assay, inhibition of NECA-stimulated cAMP levels in hA2B CHO cells; settings: read-out: Receptor hA2B IC50; cAMP stimulated by NECA (100 nM); mean ± SEM
T4 sequence (P29275 1-332): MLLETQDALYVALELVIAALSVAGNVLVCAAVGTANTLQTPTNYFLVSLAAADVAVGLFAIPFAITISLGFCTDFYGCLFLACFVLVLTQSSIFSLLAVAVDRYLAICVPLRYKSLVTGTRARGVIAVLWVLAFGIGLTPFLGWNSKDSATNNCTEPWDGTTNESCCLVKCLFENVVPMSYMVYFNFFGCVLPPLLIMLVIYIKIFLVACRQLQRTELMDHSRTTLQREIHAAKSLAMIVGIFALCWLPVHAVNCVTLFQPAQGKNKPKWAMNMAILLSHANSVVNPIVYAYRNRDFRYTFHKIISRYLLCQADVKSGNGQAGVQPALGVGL

[6] = tested on: Female CD1 mice; test: Writhing test (acetic acid-induced abdominal constrictions); type: in vivo; settings: for Dose-response curve, Writhing Test: P<0.001, one-way ANOVA
Experimental: Female CD1 mice (22-24 g) were obtained from Charles River (Milano, Italia). The animals were kept under standard environmental temperature conditions (22±2° C.) and under moisture-controlled conditions with 12 hours light/dark cycle and food and water ad libitum. The animals were acclimated to the laboratory settings for at least 1 hour before testing and were used only once throughout the experiments. All the procedures used in the present study were carried out in accordance with the European Communities Council Directives (86/609/EEC) and the National Laws and Policies (D.L.116/92) after authorization from the Italian Ministry for Health (4/2014-B). In addition, the experimental procedures were in agreement with the current guidelines for the care of laboratory animals and the ethical guidelines for investigations of experimental pain in conscious animals (Couto M. Methods Mol Biol 2011; 770:579-599).
The acetic acid-induced writhing response was performed after intraperitoneal injection of 10 ml/Kg of 0.6% acetic acid solution. The response to the abdominal constrictions induced by acetic acid was evaluated after the intraperitoneal injection of 10 ml/kg of a 0.6% solution of acetic acid. The compounds under evaluation were dissolved in DMSO and then diluted in a saline solution. The carrier consists of saline solution and 5% of DMSO. A writhe is indicated by stretching of the abdomen followed by the extension of the hind limbs. The animals (8 mice per group) were placed singly in a glass cylinder and the number of writhing episodes of abdominal contractions was counted in a 30 minutes period. The compounds were administered intraperitoneally 15 minutes before injection of acetic acid solution.
as §1

[7] = read-out: Receptor hA2A Ki, [3H]-ZM 241385, single affinity value, mean ± SEM
[8] = CGS 21680 (10 nM), read-out: IC50 cAMP, in presence of CGS 21680
[9] = CGS 21680 (10 nM), read-out: Emax cAMP, in presence of CGS 21680
[10] = basal cAMP, read-out: IC50 cAMP, in absence of CGS 21680
[11] = efficacy versus basal cAMP production, read-out: Emax cAMP, in absence of CGS 21680

Row | Structure (SMILES) | Ki [1] [µM] | Ki [2] [µM] | Ki [3, 7] [µM] | IC50 [4, 8] [µM] | Emax [4, 9] [%] | IC50 [4, 10] [µM] | Emax [4, 11] [%] | IC50 [5] [µM] | Dose-response curve, Writhing Test [6] | Anti-nociceptive activity, Writhing Test ([6]; intraperitoneal) | Ki [3] [µM] | ED50 ([6]; Mus musculus, ip, intraperitoneal, 15 minutes before acetic acid) [mg/kg]
1 | COc1ccc(CNc2nc(N)c3nc(-c4ccco4)sc3n2)cc1 [Compound 2, 2-(furan-2-yl)-N^5-(4-methoxybenzyl)[1,3]thiazolo[5,4-d]pyrimidin-5,7-diamine] | 0.381 ± 0.037 | 0.163 ± 0.012 | 0.171 ± 0.016 | 0.123 ± 0.011 | 116 ± 11 | 0.187 ± 0.016 | 38 ± 4 | 0.283 ± 0.027 |  |  |  | 
2 | COc1cccc(CNc2nc(N)c3nc(-c4ccco4)sc3n2)c1 [Compound 3, 2-(furan-2-yl)-N^5-(3-methoxybenzyl)[1,3]thiazolo[5,4-d]pyrimidin-5,7-diamine] | 0.092 ± 0.008 | 0.00816 ± 0.00072 |  |  |  |  |  | 0.452 ± 0.042 | dose-dependent effect | potency similar to morphine | 0.026 ± 0.002 | 
3 | Nc1nc(NCc2cccc(O)c2)nc2sc(-c3ccco3)nc12 [Compound 4, 3-(((7-amino-2-(furan-2-yl)[1,3]thiazolo[5,4-d]pyrimidin-5-yl)amino)methyl) phenol] | 0.055 ± 0.004 | 0.027 ± 0.003 | 0.02 ± 0.002 | 0.022 ± 0.002 | 139 ± 13 | 0.027 ± 0.002 | 68 ± 7 | 0.024 ± 0.003 |  |  |  | 
4 | Nc1nc(NCc2ccccn2)nc2sc(-c3ccco3)nc12 [Compound 8, 2-(furan-2-yl)-N^5-(pyridin-2-ylmethyl)[1,3]thiazolo[5,4-d]pyrimidin-5,7-diamine] | 0.059 ± 0.005 | 0.028 ± 0.003 | 0.00042 ± 4e-05 | 0.0013 ± 0.0001 | 128 ± 11 | 0.00068 ± 6e-05 | 54 ± 5 | 0.095 ± 0.009 |  |  |  | 
5 | Nc1nc(NCc2cccc(F)c2)nc2sc(-c3ccco3)nc12 [Compound 9, N^5-(3-fluorobenzyl)-2-(furan-2-yl)[1,3]thiazolo[5,4-d]pyrimidin-5,7-diamine] | 0.035 ± 0.004 | 0.00851 ± 0.00076 | 0.00082 ± 7e-05 |  |  |  |  | 0.103 ± 0.01 |  |  |  | 
6 | CCCNc1nc(N)c2nc(-c3ccco3)sc2n1 [Compound 11, 2-(furan-2-yl)-N^5-propyl-[1,3]thiazolo[5,4-d]pyrimidin-5,7-diamine] | 0.035 ± 0.004 | 0.064 ± 0.01 | 0.017 ± 0.002 |  |  |  |  | 0.323 ± 0.028 |  |  |  | 
7 | CCCCNc1nc(N)c2nc(-c3ccco3)sc2n1 [Compound 12, N^5-butyl-2-(furan-2-yl)[1,3]thiazolo[5,4-d]pyrimidin-5,7-diamine] | 0.023 ± 0.003 | 0.041 ± 0.005 | 0.00821 ± 0.00078 |  |  |  |  | 0.185 ± 0.017 |  |  |  | 
8 | Nc1nc(NCc2ccsc2)nc2sc(-c3ccco3)nc12 [Compound 13, 2-(furan-2-yl)-N^5-(thiophen-3-ylmethyl)[1,3]thiazolo[5,4-d]pyrimidin-5,7-diamine] | 0.00314 ± 0.00029 | 0.00812 ± 0.00071 | 0.00025 ± 2e-05 | 0.00041 ± 3e-05 | 137 ± 13 | 0.00036 ± 4e-05 | 67 ± 6 | 0.00896 ± 0.00082 |  |  |  | 
9 | Nc1nc(NCc2ccncc2)nc2sc(-c3ccco3)nc12 [Compound 14, 2-(furan-2-yl)-N^5-(pyridin-4-ylmethyl)[1,3]thiazolo[5,4-d]pyrimidin-5,7-diamine] | 0.827 ± 0.048 | 0.047 ± 0.004 | 0.012 ± 0.001 | 0.0187 ± 0.0016 | 122 ± 10 | 0.0153 ± 0.0012 | 43 ± 4 | 0.033 ± 0.002 |  |  |  | 
10 | Nc1nc(NCc2cnccn2)nc2sc(-c3ccco3)nc12 [Compound 15, 2-(furan-2-yl)-N^5-(pyrazin-2-ylmethyl)[1,3]thiazolo[5,4-d]pyrimidin-5,7-diamine] | 0.157 ± 0.014 | 0.025 ± 0.004 | 0.00514 ± 0.00048 | 0.0113 ± 0.00096 | 117 ± 10 | 0.00827 ± 0.00072 | 48 ± 4 | 0.0132 ± 0.0012 |  |  |  | 
11 | Nc1nc(NCCc2ccco2)nc2sc(-c3ccco3)nc12 [Compound 16, 2-(furan-2-yl)-N^5-(2-(furan-2-yl)ethyl)[1,3]thiazolo[5,4-d]pyrimidin-5,7-diamine] | 0.023 ± 0.002 | 0.00524 ± 0.00046 | 0.00215 ± 0.00019 | 0.00426 ± 0.00037 | 121 ± 11 | 0.00293 ± 0.00022 | 56 ± 6 | 0.014 ± 0.001 |  |  |  | 
12 | Nc1nc(NCCc2cccnc2)nc2sc(-c3ccco3)nc12 [Compound 17, 2-(furan-2-yl)-N^5-(2-(pyridin-3-yl)ethyl)[1,3]thiazolo[5,4-d]pyrimidin-5,7-diamine] | 0.174 ± 0.011 | 0.00261 ± 0.00022 | 0.00024 ± 1e-05 | 0.00035 ± 4e-05 | 141 ± 14 | 0.00029 ± 3e-05 | 71 ± 7 | 0.00421 ± 0.00032 |  |  |  | 
13 | CN1CC[C@]23c4c5ccc(O)c4O[C@H]2[C@@H](O)C=C[C@H]3[C@H]1C5 [morphine, reference compound] |  |  |  |  |  |  |  |  | dose-dependent effect |  |  | 0.123 ± 0.01
